Source: PMC9738192, “Lupane Triterpene Derivatives Improve Antiproliferative Effect on Leukemia Cells through Apoptosis Induction” (Molecules, 2022)
≈ marks a conversion by molar mass, not a printed value.

Legend:
Vero cell line = experiment: Bioassay of viability in Vero cell line (SRB); assay type: cell-based, green monkey; settings: Chlorocebus sabaeus; Vero normal cell line, 48 h
From the text: (§1) Chronic myeloid leukemia (K562; ATCC CCL-243), acute myeloid leukemia (HL60; ATCC CCL-240), and green monkey kidney cells (Vero, ATCCCCL-81) from the American Type Culture Collection (ATCC) were provided by María Antonieta Chávez Gónzalez from Unidad de Investigación Oncológica, Hospital de Oncología, Centro Médico Nacional, Instituto Mexicano del Seguro Social (IMSS, Ciudad de México, México). The K562 cell line was maintained with RPMI medium at 10% FBS, the HL60 cell line was maintained with IMDM medium at 20% FBS, and the VERO cell line was maintained with DMEM medium at 10% FBS; 1% penicillin-streptomycin was added to both cell lines and incubated at an atmosphere of culture with 95% humidity and 5% CO2 at 37 °C. All evaluation was performed between 4 and 5 cell passages.
The cells (1 × 10^4 cells/well) were seeded onto 96-well plates and incubated at 37 °C and 5% CO2 until reaching 70–80% confluence. The medium was replaced with fresh medium containing the […] different concentrations (0.1, 1, 10, and 100 μg/mL) of compounds for 48 h. After 100 μL of 10% trichloroacetic acid were added to each well, and cells were incubated for 30 min at 4 °C. Then the supernatant was removed, 100 μL of sulforhodamine B (SRB) at 0.1% with 1% of acetic acid were added, and incubated again for 15 min. Subsequently, washings were carried out with 1% acetic acid; and finally, the dye was solubilized with 200 uL of tris-base at 10 mM; and the optical density was measured at 560 nm using a GloMax spectrophotometer (Promega, WI, USA).
(§2) All cytometric data were analyzed using FlowJo^TM v10.6 software. Results of viability are expressed as the concentration of agent that reduces cell growth by 50% (IC50), calculated by GraphPad Prism 5 software. The data were expressed as means ± SEM. Statistical significance was calculated with a one-way analysis of variance (ANOVA) followed by Dunnett’s post-hoc test, applying a p < 0.05 significance level.

HL60 cell line = experiment: Bioassay of viability in leukemic cell lines (DAPI, flow cytometry); assay type: cell-based, human; settings: for IC50: Homo sapiens, HL-60, HL60, 48 h
From the text: as §1
(§3) In all cases, medium with DMSO (0.1%) was used as a negative control, and etoposide was used as positive control for K562, HL60, Vero cell lines, and normal MNC. All tests were carried out in triplicate.
(§4) A total of 2 × 10^5 cells/well were cultured into 24-well plates and treated with different concentrations of four compounds (0.1, 1, 10, and 100 μg/mL) for 48 h. At the end of this time, the cells were collected and stained with 4′,6-diamidino-2-phenylindole dihydrochloride (DAPI) at 500 ng/mL for 30 min, according to manufacturer instructions, for 15 min in darkness. The samples were then analyzed by flow cytometry using a CytoFlex flow cytometer (Beckman Coulter, Indianapolis, IN, USA).
as §2

K562 cell line [1] = experiment: as above; assay type: cell-based, human; settings: for IC50: Homo sapiens, K562, 48 h
From the text: as §1, §3, §4, §2

K562 cell line [2] = experiment: Assessment of intracellular reactive oxygen species (CM-H2DCFDA); assay type: cell-based, human
Experimental: Cells (1× 10^5) were cultured in 12-well plates and were stained with 10 μM of chloromethyl 2′,7′-dichlorodihydrofluorescein diacetate (CM-H2DCFDA) for 30 min at 37 °C. Briefly, the cells were treated with compound 1m at two different concentrations (19.5 and 39.0 µg/mL) and control (H2O2 at 50 µM) to later be incubated for 2 and 4 h. After this time, cells were analyzed using CytoFlex flow cytometry (Beckman Coulter, Indianapolis, IN, USA).

K562 cells [3] = experiment: Cell cycle assay (DAPI, flow cytometry); assay type: cell-based, human
Experimental: One million cells of K562 were cultured in 12-well plates and incubated for 18, 24, and 48 h with compound T1m at two different concentrations (19.5 and 39.0 μg/mL). After this time, the cells were collected and centrifuged at 300× g at room temperature for 5 min. The cells were resuspended in PBS, added absolute ethanol on ice, and incubated for 1 h at 4 °C. After that. Cells were centrifuged at 300× g at 4 °C for 5 min. Next, cells were washed with PBS 3% FBS and permeabilized for 20 min with 0.1% triton. After, the cells were stained with DAPI at 500 ng/mL for 1 h. After this procedure, cells were analyzed using […]. Cells analysis was carried out in an Attune flow cytometer (Thermo Fisher Scientific, Carlsbad, CA, USA).

K562 cells [4] = experiment: Apoptosis assay (annexin V-FITC / 7-AAD); assay type: cell-based, human
Experimental: Cells (2 × 10^5) were cultured in 24-well plates and treated with compound T1m at two different concentrations (19.5 and 39.0 µg/mL), to later be incubated for 18, 24, and 48 h. After this time, cells were washed with PBS and stained with annexin V-FITC and 7-AAD apoptosis kit (BD Bioscience) and incubated in the dark for 15 min. Then they were analyzed by CytoFlex flow cytometry (Beckman Coulter, Indianapolis, IN, USA).

[5] = system: peripheral blood mononuclear cells (MNC); experiment: Viability test in normal mononuclear cells (DAPI, flow cytometry); assay type: cell-based; settings: Homo sapiens, PBMC, 48 h
Experimental: Normal mononuclear cells were obtained from normal human peripheral blood monocytes and donated by the corresponding author (Moo-Puc) of the manuscript submitted. The MNC was purified with FicollPaque Plus (Pharmacia Biotech, Uppsala, Sweden) by centrifugation at 400× g at room temperature for 30 min according to the manufacturer’s protocol. Once the MNC were obtained, they were resuspended in RPMI medium (ATCC) with 10% FBS, and they were counted using a hemocytometer, previously stained with a trypan blue solution, verifying the viability of 95% [61].
Cells were plated at 2 × 10^5 cells/well in 24-well plates and incubated with different concentrations of compounds T1m (0.1, 1, 10, and 100 μg/mL) for 48 h. RPMI with 10% FBS was used as a culture medium for cell growth. After this time, cells were collected, washed with PBS, and stained with DAPI at 500 ng/mL for 30 min, according to manufacturer instructions. Cells analysis was carried out in a CytoFlex flow cytometer (Beckman Coulter, Indianapolis, IN, USA).
All cytometric data were analyzed using FlowJo^TM v10.6 software. […] The data were expressed as means ± SEM. Statistical significance was calculated with a one-way analysis of variance (ANOVA) followed by Dunnett’s post-hoc test, applying a p < 0.05 significance level.

K562 cell line [6] = experiment: Assessment of mitochondrial membrane potential (rhodamine 123); assay type: cell-based, human; settings: 18 h, Rho-123
Experimental: Cells (1× 10^5) were cultured in 12-well plates and treated with compound 1m at two different concentrations (19.5 and 39.0 µg/mL), to later be incubated for 18 h. After this time, cells were stained with 5 μM of rhodamine 123 (Rho-123) and incubated for 30 min at 37 °C. Briefly, cells were washed with PBS and analyzed using a Cytoflex flow cytometer (Beckman Coulter, Indianapolis, IN, USA).

Work on `C=C(C)[C@@H]1CC[C@]2(C(=O)O)CC[C@]3(C)C(CCC4[C@@]5(C)CC[C@H]6OC(C)(C)OC[C@@]6(C)C5CC[C@]43C)C12` (stereo partly drawn) [Compound T2, 3α,23-O-isopropylidenyl-3α,23-dihydroxylup-20(29)-en-28-oic acid] yielded an IC50 (Vero cell line) greater than 200 µg/mL, an IC50 (HL60 cell line) greater than 100 µg/mL and an IC50 (K562 cell line [1]) greater than 100 µg/mL.

For `OO` [Compound H2O2, H2O2, reference compound], the “ROS increase vs negative control” value (K562 cell line [2]; K562, damage control (50 µM), 2 h) was “seven-fold”.

For `C=C(C)[C@@H]1CC[C@]2(C(=O)O)CC[C@]3(C)C(CCC4[C@@]5(C)CC[C@@H](O)[C@](C)(CO)C5CC[C@]43C)C12` (stereo partly drawn) [Compound T1, 3α,24-dihydroxylup-20(29)-en-28-oic acid], the IC50 (Vero cell line) was 137.2 ± 1.1 µg/mL (≈ 290 µM), the IC50 (HL60 cell line) was greater than 100 µg/mL and the IC50 (K562 cell line [1]) was 100 ± 1 µg/mL (≈ 212 µM). For the same compound, the “selectivity index (IS)” value (K562 cell line [1]; IC50 Vero over IC50 K562) was 1.37.

With `C=C(C)[C@@H]1CC[C@]2(C(=O)O)CC[C@]3(C)C(CCC4[C@@]5(C)CC[C@@H](OC)[C@](C)(CO)C5CC[C@]43C)C12` (stereo partly drawn) [Compound T1m, 3α-methoxy-24-hydroxylup-20(29)-en-28-oic acid] the “cell cycle distribution vs negative control” value (K562 cells [3]; K562, 19.5 μg/mL, 18 h) was “No difference”, the sub-G0 population (K562 cells [3]; K562, 39.0 μg/mL, 18 h) was 7.29 ± 0.05% and the sub-G0 population (K562 cells [3]; K562, 39.0 μg/mL, 24 h) was 13.30 ± 1.20%. The sub-G0 population (K562 cells [3]; K562, at IC50 (39.0 μg/mL), 48 h) was 85.85 ± 0.15%, the “apoptotic cell population (positive annexin V-FITC)” value (shortened to “apoptotic cell population”) (K562 cells [4]; K562, 19.5 μg/mL, 48 h) was 11.91 ± 1.04% and the “apoptotic cell population” value (K562 cells [4]; K562, 39.0 μg/mL, 18 h) was 12.50 ± 0.65%. The “apoptotic cell population” value (K562 cells [4]; K562, 39.0 μg/mL, 48 h) was 27.47 ± 1.23%, the “apoptotic cell population” value (K562 cells [4]; K562, at IC50 (39.0 μg/mL), 24 h) was 24.35 ± 1.04% and the IC50 [5] was 86.5 ± 1.2 µg/mL (≈ 178 µM). For the same compound, the “ROS increase vs negative control” value (K562 cell line [2]; K562, 19.5 μg/mL, 2 h) was “five-fold”, the “ROS increase vs negative control” value (K562 cell line [2]; K562, 19.5 μg/mL, 4 h) was “six-fold” and the “ROS increase vs negative control” value (K562 cell line [2]; K562, 39.0 μg/mL, 2 h) was “seven-fold”. The “ROS increase vs negative control” value (K562 cell line [2]; K562, 39.0 μg/mL, 4 h) was “nine-fold”, the IC50 (Vero cell line) was 66.8 ± 1 µg/mL (≈ 137 µM) and the “MMP (mitochondrial membrane potential) compared with negative control” value (K562 cell line [6]; K562, 19.5 μg/mL) was “approximately 45%”. For the same compound, the “MMP (mitochondrial membrane potential) compared with negative control” value (K562 cell line [6]; K562, 39.0 μg/mL) was 67%, the IC50 (HL60 cell line) was 68.6 ± 1.2 µg/mL (≈ 141 µM) and the “selectivity index (IS)” value (HL60 cell line; IC50 MNC over IC50 HL60) was 1.26. For the same compound, the IC50 (K562 cell line [1]) was 39.5 ± 1.1 µg/mL (≈ 81.1 µM), the “selectivity index (IS)” value (K562 cell line [1]; IC50 MNC over IC50 K562) was 2.19 and the “selectivity index (IS)” value (K562 cell line [1]; IC50 Vero over IC50 K562) was 1.69.

`C=C(C)[C@@H]1CC[C@]2(C(=O)O)CC[C@]3(C)C(CCC4[C@@]5(C)CC[C@@H](OC(C)=O)[C@](C)(CO)C5CC[C@]43C)C12` (stereo partly drawn) [Compound T1Ac, 3α-acetyl-24-hydroxylup-20(29)-en-28-oic acid] showed an IC50 (Vero cell line) greater than 200 µg/mL, an IC50 (HL60 cell line) greater than 100 µg/mL and an IC50 (K562 cell line [1]) greater than 100 µg/mL.

`COc1cc([C@@H]2c3cc4c(cc3[C@@H](O[C@@H]3O[C@@H]5CO[C@@H](C)O[C@H]5[C@H](O)[C@H]3O)[C@H]3COC(=O)[C@H]23)OCO4)cc(OC)c1O` [Etoposide, etoposide, reference compound] was tested, and the G2 population (K562 cells [3]; K562, 14.7 μg/mL, 18 h, positive control) was “increase”, the “apoptotic cell population” value (K562 cells [4]; K562, positive control, 18 h) was 13.34 ± 0.04% and the “apoptotic cell population” value (K562 cells [4]; K562, positive control, 24 h) was 17.91 ± 0.06%. For the same compound, the “apoptotic cell population” value (K562 cells [4]; K562, positive control, 48 h) was 32.60 ± 0.55%, the IC50 [5] was greater than 100 µg/mL and the “ROS increase vs negative control” value (K562 cell line [2]; K562, positive control, 2 h) was “six-fold”. The IC50 (Vero cell line) was 29.4 ± 1.1 µg/mL (≈ 50 µM), the IC50 (HL60 cell line) was 1.3 ± 0.3 µg/mL (≈ 2.21 µM) and the “selectivity index (IS)” value (HL60 cell line; IC50 MNC over IC50 HL60) was greater than 76.92. The “selectivity index (IS)” value (HL60 cell line; IC50 Vero over IC50 HL60) was 22.63, the IC50 (K562 cell line [1]) was 14.7 ± 1.2 µg/mL (≈ 25 µM) and the “selectivity index (IS)” value (K562 cell line [1]; IC50 MNC over IC50 K562) was greater than 6.80. For the same compound, the “selectivity index (IS)” value (K562 cell line [1]; IC50 Vero over IC50 K562) was 2.00.

In the case of `C=C(C)[C@@H]1CC[C@]2(C(=O)OC)CC[C@]3(C)C(CCC4[C@@]5(C)CC[C@H]6OC(C)(C)OC[C@@]6(C)C5CC[C@]43C)C12` (stereo partly drawn) [Compound T2COOMe, methyl ester of 3α,23-O-isopropylidenyl-3α,23-dihydroxylup-20(29)-en-28-oic acid], the IC50 (Vero cell line) is reported as greater than 200 µg/mL, the IC50 (HL60 cell line) is reported as greater than 100 µg/mL and the IC50 (K562 cell line [1]) is reported as greater than 100 µg/mL.
